Here are results for seven molecules from publication PMC12527977, “Discovery of a novel tetrapeptide as glucose homeostasis modulator with bifunctionalities of targeting DPP‐IV and microbiota” (iMeta, 2025).

pIC50, pKd: −log10 of the molar value. Several values for one entry are separate records, joined by “and”; a condition that tells them apart may be missing. Equal entries are not always repeated. Structures can show the parent of a compound that is named as a salt. Where two headings read alike, the source gives them in different places. Where a SMILES comes first, the peptide text is derived from it.

Data set [1] can be described thus: Simulated digestive stability of peptides (pepsase then trypsase). Format: in vitro ADME, porcine. Conditions: pig, relative to basal 100, sheet S2H; for remaining at 4 h, 5 mg/mL: pH 7, simulated digestion, after pepsase then trypsase, read-out: Peptide remaining, Trypsase; for remaining at 2 h, 5 mg/mL: porcine pepsase (simulated gastric digestion), pH 3, simulated digestion, after porcine pepsase, read-out: Peptide remaining, Pepsase. The protocol: (§1) The in vitro digestibility of the peptides was determined according to the method described by Ohanenye et al. with some modifications. Briefly, 5.0 mg/mL peptides were mixed with 5000 U/mL porcine pepsase (pH 3.0). The mixture was incubated with continuous shaking in a water bath at 37 ℃ for 2 h. Then, the mixture was adjusted to pH 7.0, and a final concentration of 100 U/mL trypsase was added, followed by continuous shaking at 37 ℃ for another 2 h. After digestion, the enzyme was inactivated, and the mixture was incubated in a water bath (100 ℃) for 20 min. Subsequently, the mixture was centrifuged at 6000 rpm for 20 min, after which the supernatants were collected for further analysis. The concentrations of peptides in the digestions and TPH were determined via AB SCIEX QTrap 6600+ (AB Sciex, Framingham, Massachusetts).

For data set [2], the system named is porcine pepsase and trypsase. The description is as above. The class given is in vitro ADME. The note with it: in words; 5.0 mg/mL peptide, pepsase 5000 U/mL pH 3.0 37 °C 2 h, then trypsase 100 U/mL pH 7.0 37 °C 2 h, LC-MS. The protocol: as §1
For data set [3], the target named is T1, DPP-IV (Homo sapiens, UniProt P27487). Nature of the data set: DPP-IV inhibitory activity of peptides (DPP-IV-Glo Protease Assay Kit). The class given is biochemical. The arrangement: purchased QiZheng Biotech (Shanghai, China) IBDPP0901. Conditions: for DPP-IV inhibitory activity: DPP-IV-Glo Protease Assay Kit, control = 0, sheet S2F, in % (unit assumed); for pIC50: read-out: IC50.
Target sequence in this assay (P27487 whole entry): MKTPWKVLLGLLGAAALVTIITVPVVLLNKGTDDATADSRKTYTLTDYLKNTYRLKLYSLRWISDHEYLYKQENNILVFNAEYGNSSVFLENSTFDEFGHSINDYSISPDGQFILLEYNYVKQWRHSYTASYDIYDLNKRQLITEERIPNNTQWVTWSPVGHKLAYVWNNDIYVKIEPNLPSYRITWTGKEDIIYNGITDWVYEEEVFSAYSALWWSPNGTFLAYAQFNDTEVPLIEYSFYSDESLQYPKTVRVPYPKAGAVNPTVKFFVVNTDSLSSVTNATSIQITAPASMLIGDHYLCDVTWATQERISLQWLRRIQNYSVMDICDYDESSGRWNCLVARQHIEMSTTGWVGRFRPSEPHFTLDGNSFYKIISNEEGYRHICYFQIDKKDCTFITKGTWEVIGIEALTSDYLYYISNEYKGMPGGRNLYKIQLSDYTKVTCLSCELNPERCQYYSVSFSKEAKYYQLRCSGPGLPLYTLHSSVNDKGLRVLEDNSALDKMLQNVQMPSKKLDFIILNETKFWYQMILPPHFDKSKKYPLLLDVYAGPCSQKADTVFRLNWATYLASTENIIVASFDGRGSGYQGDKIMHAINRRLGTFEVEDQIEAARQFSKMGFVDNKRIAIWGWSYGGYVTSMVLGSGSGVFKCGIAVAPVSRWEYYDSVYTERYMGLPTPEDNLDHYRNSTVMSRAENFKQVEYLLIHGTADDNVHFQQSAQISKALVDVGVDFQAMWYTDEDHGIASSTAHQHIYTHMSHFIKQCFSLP

Data set [4] has as its system HFD-fed C57BL/6J mice. Nature of the data set: HFD-fed mice, TPH/sitagliptin/HSP 8 weeks: plasma NEFA, TG, TC, HDL-c, LDL-c. The class given is in vivo, mouse. Conditions: individual animals, n = 6, sheet S1U, listed as Sit. The method, then:
(§2) To evaluate the hypoglycaemic activity of TPH, all mice were fed a high-fat diet (HFD, Research Diets, cat# D12492).
The levels of plasma total cholesterol (TC), triacylglycerol (TG), high-density lipoprotein cholesterol (HDL-c), low-density lipoprotein cholesterol (LDL-c), nonesterified fatty acid (NEFA), tumour necrosis factor α (TNF α), and interleukin-1β (IL-1β) were determined by commercial kit (Nanjing Jiancheng Bioengineering Institute, Nanjing, China).

Data set [5] has as its system HFD-fed C57BL/6J mice. Nature of the data set: HFD-fed mice, TPH/sitagliptin/HSP 8 weeks: FBG, OGTT, fasting insulin, HOMA-IR. The arrangement: unit not given here. The class given is in vivo, mouse. The note with it: 8 weeks p.o. (Sit 12.5, TPH 80, HSP 320 mg/kg). The protocol:
as §2
Oral glucose tolerance tests (OGTTs) were conducted following a 6-hour fasting period in mice. Blood glucose levels were assessed using a glucometer on tail vein blood samples at 0, 15, 30, 60, and 90 min after oral glucose administration with a dosage of 1.5 g/kg body weight. For insulin tolerance tests (ITTs), mice were intraperitoneal injected with insulin (0.8 U/kg body weight) after 6 h of fasting. […] The levels of active GLP-1, total GLP-1, and insulin were measured using the corresponding kits and normalized to the protein concentration (via a BCA protein assay).

For data set [6], the system named is gut microbiota, A. muciniphila. Nature of the data set: HFD-fed mice, TPH or sitagliptin 8 weeks: gut microbiota (16S rRNA). The class given is in vivo, mouse. The note with it: in words, 8 weeks p.o. An excerpt: To evaluate the hypoglycaemic activity of TPH, all mice were fed a high-fat diet (HFD, Research Diets, cat# D12492). […] Raw sequencing data were processed with QIIME2. In brief, the forward and reverse reads each were truncated at 200 bases. Taxonomy was assigned using the Greengenes reference (version 13.8) database. Analyses of alpha diversity (one-way ANOVA followed by Tukey’s post hoc test), beta diversity (weighted UniFrac distance followed by ANOSIM test), and bacterial taxonomic distributions were performed using MicrobiomeAnalyst.

Data set [7] concerns the target T1, DPP-IV. Nature of the data set: Surface plasmon resonance (Biacore 8K, CM5 chip, 25 °C). The class given is binding. The arrangement: purchased QiZheng Biotech (Shanghai, China) IBDPP0901. The note with it: SPR, Table S3; read-out: KD values. Background: Surface plasmon resonance follows binding to a sensor surface in real time, without labels.
Data set [8] deals with A. muciniphila. Put plainly: HFD-fed mice, VAMP and/or benzydamine 4 weeks: A. muciniphila abundance in faeces (qPCR). Conditions: in words, 50 mg/kg three times per week for 4 weeks. Format: in vivo, mouse.
Data set [9] has as its system A. muciniphila. Nature of the data set: Effect of different drugs (50 μM) on the growth of A. muciniphila. The class given is cell-based, Akkermansia muciniphila. Conditions: in words; drugs at 50 μM.

For `NC(=O)CC[C@H](NC(=O)[C@@H]1CCCN1C(=O)[C@@H](N)Cc1ccccc1)C(=O)N[C@@H](CO)C(=O)O` [FPQS] (H-FPQS-OH), the amount remaining at 4 h, 5 mg/mL in data set [1] (replicate 1) was 85.1%; in [1] (replicate 2) it was 83.4%; in data set [1] (replicate 3) it was 87.9%. Also, the share remaining at 2 h, 5 mg/mL is 94.6% in data set [1] (replicate 1), 92.4% in data set [1] (replicate 2) and 92.7% in data set [1] (replicate 3). Further, in [2], the “Resistance to simulated gastric pepsase and trypsase digestion” value is recorded as “readily resistant”. Also, the results for the DPP-IV inhibitory activity on DPP-IV [3] (replicate 1), on DPP-IV [3] (replicate 2) and on DPP-IV [3] (replicate 3) were 35.1258, 29.3845 and 34.8747, respectively. Moreover, the pIC50 is 3.46 at DPP-IV [3] (Table S3) and 4.10 on DPP-IV [3] (source data of heatmap Fig 1J).

Consider `N[C@@H](CC(=O)N1CCn2c(nnc2C(F)(F)F)C1)Cc1cc(F)c(F)cc1F` [Sitagliptin], for which the “Plasma HDL-c” value with HFD-fed C57BL/6J mice [4] is 2.289 and 2.058 and 2.182 and 2.361 and 2.149. For the same molecule, the “AUC of the OGTT” value in the data set with HFD-fed C57BL/6J mice [5] (mouse 1 of group) is reported as 27513; in the data set with HFD-fed C57BL/6J mice [5] (mouse 2 of group), 22668; in the data set on HFD-fed C57BL/6J mice [5] (mouse 3 of group) it was 23854.5; with HFD-fed C57BL/6J mice [5] (mouse 4 of group) it was 21897; in the data set on HFD-fed C57BL/6J mice [5] (mouse 5 of group) it was 22426.5; with HFD-fed C57BL/6J mice [5] (mouse 6 of group), 19386. The “Levels of fasting insulin” value in the data set with HFD-fed C57BL/6J mice [5] (mouse 1 of group) was 31.21; in the data set on HFD-fed C57BL/6J mice [5] (mouse 2 of group), 34.42; in the data set with HFD-fed C57BL/6J mice [5] (mouse 3 of group) it was 37.914; in the data set with HFD-fed C57BL/6J mice [5] (mouse 4 of group), 32.691; in the data set on HFD-fed C57BL/6J mice [5] (mouse 5 of group), 36.21; with HFD-fed C57BL/6J mice [5] (mouse 6 of group), 32.691. Besides, the “Abundance of A. muciniphila in the intestine” value in [6] was “no effect”.

For `CC(C)[C@H](N)C(=O)N[C@@H](C)C(=O)N[C@@H](CC(=O)O)C(=O)N[C@@H](Cc1c[nH]c2ccccc12)C(=O)O` [VADW] (H-VADW-OH), the fraction remaining at 4 h, 5 mg/mL was 9.2% in data set [1] (replicate 1), 9.52% in [1] (replicate 2) and 7.78% in [1] (replicate 3). The share remaining at 2 h, 5 mg/mL in [1] (replicate 1) is 12.2%; in data set [1] (replicate 2) it was 14.3%; in data set [1] (replicate 3), 10.4%. The figures for the DPP-IV inhibitory activity at DPP-IV [3] (replicate 1), at DPP-IV [3] (replicate 2) and on DPP-IV [3] (replicate 3) were 63.2506, 57.5085 and 57.0946, respectively. In addition, the pIC50 at DPP-IV [3] (Table S3) is 3.46. Also, the pKd at DPP-IV [7] was 4.85.

`CC(C)C[C@H](NC(=O)[C@H](CC(N)=O)NC(=O)[C@@H](N)Cc1ccc(O)cc1)C(=O)N1CCC[C@H]1C(=O)O` [YNLP] (H-YNLP-OH): the amount remaining at 4 h, 5 mg/mL is 98.7% in data set [1] (replicate 1), 99% in data set [1] (replicate 2) and 100% in [1] (replicate 3). In addition, the share remaining at 2 h, 5 mg/mL in [1] (replicate 1) was 97.5%; in data set [1] (replicate 2), 99.8%; in data set [1] (replicate 3) it was 100%. Moreover, the “Resistance to simulated gastric pepsase and trypsase digestion” value in data set [2] was “readily resistant”. Further, the DPP-IV inhibitory activity is on record as 22.415 at DPP-IV [3] (replicate 1), 17.2115 on DPP-IV [3] (replicate 2) and 22.0674 on DPP-IV [3] (replicate 3). Moreover, the pIC50 on DPP-IV [3] (Table S3) was 3.29. Further, on DPP-IV [7], the negative logarithm of the Kd (pKd) is 4.00.

Turning to `CSCC[C@H](NC(=O)[C@H](CC(C)C)NC(=O)[C@H](CCC(N)=O)NC(=O)[C@@H](N)Cc1ccc(O)cc1)C(=O)O` [YQLM] (H-YQLM-OH), the results for the fraction remaining at 4 h, 5 mg/mL in [1] (replicate 1), in data set [1] (replicate 2) and in data set [1] (replicate 3) were 14.3%, 12.7% and 9.83%, respectively. For the same molecule, the amount remaining at 2 h, 5 mg/mL in data set [1] (replicate 2) was 14.7%; in [1] (replicate 3), 15%. Further, the DPP-IV inhibitory activity at DPP-IV [3] (replicate 1) is recorded as 41.3327; at DPP-IV [3] (replicate 2), 38.0136; on DPP-IV [3] (replicate 3), 34.538. For the same molecule, on DPP-IV [3] (Table S3), the pIC50 is 3.19. Moreover, on DPP-IV [7], the pKd was 4.60.

Take `C[C@H](NC(=O)[C@H](Cc1ccc(O)cc1)NC(=O)[C@H](CO)NC(=O)[C@@H](N)Cc1ccc(O)cc1)C(=O)O` [YSYA] (H-YSYA-OH): the values for the amount remaining at 4 h, 5 mg/mL in data set [1] (replicate 1), in data set [1] (replicate 2) and in data set [1] (replicate 3) were 3.01%, 3.24% and 4.18%, respectively. Further, the amount remaining at 2 h, 5 mg/mL in data set [1] (replicate 1) is 17.8%; in data set [1] (replicate 2), 17.7%; in data set [1] (replicate 3) it was 15.2%. Moreover, the DPP-IV inhibitory activity on DPP-IV [3] (replicate 1) was found to be 27.0679; on DPP-IV [3] (replicate 2), 29.9267; on DPP-IV [3] (replicate 3), 30.8304. For the same molecule, the pIC50 on DPP-IV [3] (Table S3) was 3.39. For the same molecule, the pKd on DPP-IV [7] was 5.26.

Consider `CN(C)CCCOc1nn(Cc2ccccc2)c2ccccc12` [benzydamine, benzydamine hydrochloride], for which the “Abundance of A. muciniphila in faeces” value in the data set with A. muciniphila [8] was “reduced the abundance of A. muciniphila to an extremely low level”. Besides, in the data set with A. muciniphila [9], the “Growth of A. muciniphila” value is recorded as “specifically inhibit the growth of A. muciniphila”.

The share remaining is what is left of the initial amount, in per cent. Broadly, the pIC50 is the IC50 on a negative log10 scale, so that one unit is a factor of ten. In general, pKd refers to −log10 of the Kd, conventionally taken in molar units.
